Source: ChEMBL document CHEMBL5465560, “Selectivity Literature for EUbOPEN Chemogenomic Library” (2024)

What was measured:
[1] = molecular target: T1, Inhibitor of nuclear factor kappa-B kinase subunit beta (Homo sapiens) (UniProt O14920); assay: Selectivity interaction (ProQinase) EUB0000171b IKBKB
T1 sequence (whole entry): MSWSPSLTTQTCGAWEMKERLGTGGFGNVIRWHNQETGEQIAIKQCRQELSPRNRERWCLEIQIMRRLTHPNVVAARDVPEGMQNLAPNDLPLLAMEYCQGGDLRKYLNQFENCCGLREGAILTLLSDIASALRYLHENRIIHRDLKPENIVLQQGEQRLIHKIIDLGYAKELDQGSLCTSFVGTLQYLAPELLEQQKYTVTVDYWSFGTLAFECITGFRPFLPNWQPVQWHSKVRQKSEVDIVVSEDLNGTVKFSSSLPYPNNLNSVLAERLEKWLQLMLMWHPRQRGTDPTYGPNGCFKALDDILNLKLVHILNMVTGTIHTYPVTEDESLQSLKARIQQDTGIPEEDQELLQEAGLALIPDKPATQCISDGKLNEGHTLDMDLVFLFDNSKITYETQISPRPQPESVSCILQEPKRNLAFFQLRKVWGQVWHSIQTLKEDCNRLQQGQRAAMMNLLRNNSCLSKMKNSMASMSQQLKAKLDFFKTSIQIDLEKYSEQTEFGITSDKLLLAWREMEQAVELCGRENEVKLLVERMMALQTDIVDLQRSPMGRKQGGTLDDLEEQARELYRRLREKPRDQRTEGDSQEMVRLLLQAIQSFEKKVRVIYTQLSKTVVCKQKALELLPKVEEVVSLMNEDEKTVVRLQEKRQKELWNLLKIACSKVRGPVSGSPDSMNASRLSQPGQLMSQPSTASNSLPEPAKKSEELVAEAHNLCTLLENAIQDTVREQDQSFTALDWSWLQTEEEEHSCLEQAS

Adenosine receptor A2a = Adenosine receptor A2a (Homo sapiens, UniProt P29274); assay: Selectivity interaction (Panel of kinases, GPCRs, ion channels and transporters (enzymatic assay)) EUB0000266bCl ADORA2A
[2] = molecular target: Activin receptor type-2A (Homo sapiens) (UniProt P27037); assay: Selectivity interaction (LanthaScreen Eu Kinase Binding Assay) EUB0001632a ACVR2A; details: at 10 µM
[3] = molecular target: T2, Aurora kinase A (Homo sapiens) (UniProt O14965); assay: Selectivity interaction (ActivX KiNativ screen (kinase selectivity in THP-1 cell lysates)) EUB0000639a STK6; type: subcellular; details: lysate, at 5 µM
T2 sequence (whole entry): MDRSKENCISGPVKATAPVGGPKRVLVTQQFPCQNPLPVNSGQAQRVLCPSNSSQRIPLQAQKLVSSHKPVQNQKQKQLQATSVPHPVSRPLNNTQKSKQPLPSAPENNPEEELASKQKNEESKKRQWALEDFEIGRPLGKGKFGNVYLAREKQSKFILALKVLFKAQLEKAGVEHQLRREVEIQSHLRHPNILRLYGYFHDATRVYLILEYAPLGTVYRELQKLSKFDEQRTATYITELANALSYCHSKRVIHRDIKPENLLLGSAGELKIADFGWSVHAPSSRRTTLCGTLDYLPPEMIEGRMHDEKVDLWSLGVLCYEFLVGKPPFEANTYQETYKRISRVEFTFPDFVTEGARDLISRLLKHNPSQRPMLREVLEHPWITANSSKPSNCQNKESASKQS

[4] = molecular target: Serine/threonine-protein kinase SIK2 (Homo sapiens) (UniProt Q9H0K1); assay: Selectivity interaction (KinomeScan (DiscoverX)) EUB0000618a SIK2; details: at 10 µM
[5] = molecular target: T3, Serine/threonine-protein kinase 36 (Homo sapiens) (UniProt Q9NRP7); assay: Selectivity interaction (Ambit KINOMEscan and KiNATiv profiling in Jurkat cells) EUB0000090b STK36; type: cell-based; details: at 1 µM
T3 sequence (whole entry): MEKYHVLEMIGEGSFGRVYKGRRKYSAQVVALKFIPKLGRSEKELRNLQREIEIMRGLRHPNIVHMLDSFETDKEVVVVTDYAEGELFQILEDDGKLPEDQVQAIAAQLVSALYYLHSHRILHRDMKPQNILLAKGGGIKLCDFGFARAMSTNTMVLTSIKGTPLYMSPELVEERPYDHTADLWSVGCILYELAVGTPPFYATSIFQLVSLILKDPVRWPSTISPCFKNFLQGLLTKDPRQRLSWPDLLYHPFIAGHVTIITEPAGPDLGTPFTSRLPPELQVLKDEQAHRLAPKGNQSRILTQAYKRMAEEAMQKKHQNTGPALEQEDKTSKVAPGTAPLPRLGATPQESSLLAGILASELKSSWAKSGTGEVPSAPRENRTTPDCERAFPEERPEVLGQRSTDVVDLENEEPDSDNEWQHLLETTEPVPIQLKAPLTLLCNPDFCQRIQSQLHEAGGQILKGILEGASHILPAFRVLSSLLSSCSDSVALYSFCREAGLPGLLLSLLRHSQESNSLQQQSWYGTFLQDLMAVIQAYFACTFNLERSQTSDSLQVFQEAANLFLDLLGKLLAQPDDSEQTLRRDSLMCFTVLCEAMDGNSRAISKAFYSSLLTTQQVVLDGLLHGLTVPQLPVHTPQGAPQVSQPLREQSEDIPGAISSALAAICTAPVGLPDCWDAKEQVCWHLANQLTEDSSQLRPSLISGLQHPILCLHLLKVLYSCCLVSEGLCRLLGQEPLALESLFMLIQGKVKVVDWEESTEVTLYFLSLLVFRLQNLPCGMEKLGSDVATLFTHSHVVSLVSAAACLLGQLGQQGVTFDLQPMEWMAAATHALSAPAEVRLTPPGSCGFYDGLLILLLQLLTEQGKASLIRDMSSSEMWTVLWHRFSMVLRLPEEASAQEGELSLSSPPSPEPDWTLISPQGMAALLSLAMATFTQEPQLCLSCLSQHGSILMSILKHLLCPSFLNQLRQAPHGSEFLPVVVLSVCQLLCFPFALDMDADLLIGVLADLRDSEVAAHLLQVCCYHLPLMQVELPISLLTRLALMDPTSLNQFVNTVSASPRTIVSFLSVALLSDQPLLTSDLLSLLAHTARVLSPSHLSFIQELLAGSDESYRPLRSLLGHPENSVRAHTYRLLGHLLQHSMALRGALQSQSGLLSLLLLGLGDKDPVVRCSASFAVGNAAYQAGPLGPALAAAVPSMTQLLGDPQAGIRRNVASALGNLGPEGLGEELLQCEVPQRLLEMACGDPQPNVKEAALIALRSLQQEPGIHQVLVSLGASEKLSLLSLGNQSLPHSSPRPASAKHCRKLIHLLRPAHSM

Activin receptor type-2A (Homo sapiens), sequence (P27037 whole entry): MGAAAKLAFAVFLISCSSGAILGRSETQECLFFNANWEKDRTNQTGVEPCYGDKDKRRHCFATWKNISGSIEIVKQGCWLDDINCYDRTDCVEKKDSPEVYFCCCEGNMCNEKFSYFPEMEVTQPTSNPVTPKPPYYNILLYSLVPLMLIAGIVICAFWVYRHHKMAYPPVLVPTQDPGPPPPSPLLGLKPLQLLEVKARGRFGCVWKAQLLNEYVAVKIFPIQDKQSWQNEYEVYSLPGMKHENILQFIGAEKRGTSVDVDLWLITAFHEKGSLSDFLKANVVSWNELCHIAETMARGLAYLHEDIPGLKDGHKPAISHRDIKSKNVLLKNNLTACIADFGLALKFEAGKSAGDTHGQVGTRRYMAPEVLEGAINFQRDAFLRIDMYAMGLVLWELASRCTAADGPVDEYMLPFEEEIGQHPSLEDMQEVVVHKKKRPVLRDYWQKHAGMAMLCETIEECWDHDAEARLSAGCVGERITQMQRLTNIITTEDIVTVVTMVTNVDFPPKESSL
Adenosine receptor A2a, sequence (P29274 whole entry): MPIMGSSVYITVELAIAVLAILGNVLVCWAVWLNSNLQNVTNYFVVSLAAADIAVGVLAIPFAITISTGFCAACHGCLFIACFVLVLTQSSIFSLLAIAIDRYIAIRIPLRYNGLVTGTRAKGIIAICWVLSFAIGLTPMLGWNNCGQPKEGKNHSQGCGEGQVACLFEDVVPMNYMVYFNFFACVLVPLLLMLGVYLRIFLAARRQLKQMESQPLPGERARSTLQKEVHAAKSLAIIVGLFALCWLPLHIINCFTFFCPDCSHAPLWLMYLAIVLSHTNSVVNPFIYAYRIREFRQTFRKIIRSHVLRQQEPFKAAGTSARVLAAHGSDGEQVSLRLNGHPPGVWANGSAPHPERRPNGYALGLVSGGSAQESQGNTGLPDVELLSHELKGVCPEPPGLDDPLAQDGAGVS
Serine/threonine-protein kinase SIK2 (Homo sapiens), sequence (Q9H0K1 whole entry, looked up): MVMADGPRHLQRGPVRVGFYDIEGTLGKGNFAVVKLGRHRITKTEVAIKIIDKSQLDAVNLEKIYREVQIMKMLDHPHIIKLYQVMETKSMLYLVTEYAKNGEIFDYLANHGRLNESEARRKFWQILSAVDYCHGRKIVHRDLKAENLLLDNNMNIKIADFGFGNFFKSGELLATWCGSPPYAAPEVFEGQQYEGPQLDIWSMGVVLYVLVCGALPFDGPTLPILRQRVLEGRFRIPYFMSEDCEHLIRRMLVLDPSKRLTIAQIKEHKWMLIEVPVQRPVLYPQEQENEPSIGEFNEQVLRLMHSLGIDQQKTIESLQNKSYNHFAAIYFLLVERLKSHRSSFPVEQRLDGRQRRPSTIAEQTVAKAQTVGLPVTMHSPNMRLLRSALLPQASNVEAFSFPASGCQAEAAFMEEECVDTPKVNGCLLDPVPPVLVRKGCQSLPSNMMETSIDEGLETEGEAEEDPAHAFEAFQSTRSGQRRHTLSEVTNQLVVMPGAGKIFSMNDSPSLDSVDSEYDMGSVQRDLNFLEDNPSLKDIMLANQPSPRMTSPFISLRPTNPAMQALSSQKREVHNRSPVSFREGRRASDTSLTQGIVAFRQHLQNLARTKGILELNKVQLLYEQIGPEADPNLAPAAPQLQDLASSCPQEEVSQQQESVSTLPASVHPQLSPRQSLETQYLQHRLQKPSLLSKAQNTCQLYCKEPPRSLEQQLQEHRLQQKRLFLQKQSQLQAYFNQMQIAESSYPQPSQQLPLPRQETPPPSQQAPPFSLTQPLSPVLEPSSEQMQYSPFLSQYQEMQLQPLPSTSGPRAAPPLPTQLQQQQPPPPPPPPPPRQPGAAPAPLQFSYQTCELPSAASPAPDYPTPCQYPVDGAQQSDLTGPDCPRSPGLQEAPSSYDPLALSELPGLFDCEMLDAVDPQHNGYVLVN

Q: Which % of control ([1]; at 1 µM) does the source give for `C=CC(=O)Nc1cccc(C(=O)Nc2ccc(Nc3cc(-c4[nH]c(SC)nc4C)ccn3)cc2)c1` here?
A: The % of control was 77%.

Q: And the % of control ([1]; at 5 µM)?
A: Its % of control is 63%.

Q: How did the pXC50 (Adenosine receptor A2a) turn out when `CCn1c(-c2nc3cc(C(=O)N4CCCC(N)C4)ccc3n2C)cc2ccccc21` (configuration not stated) was run?
A: The pXC50 was less than 4.5 M.

Q: How did the % of inhibition [2] turn out when `Cn1cc(-n2cnc3c(NCc4nc5cc(Cl)c(Cl)cc5[nH]4)nc(N4CCOCC4)nc32)cn1` was run?
A: Its % of inhibition is -39.5%.

Q: Which % of inhibition [3] does the source give for `CC[C@@H]1[C@H](F)C(=O)N[C@@H]1COc1nccc2cc(C(N)=O)c(OC)cc12` [ZIMLOVISERTIB] here?
A: Its % of inhibition is 57.8%.

Q: Which % of control [4] does the source give for `O[C@H]1CC[C@H](Nc2ncc3nc(Nc4c(F)cc(F)cc4F)n([C@H]4CCOC4)c3n2)CC1` here?
A: Its % of control is 33%.

Q: For `CN(C)C/C=C/C(=O)Nc1ccc(C(=O)N2CCCC(Nc3ncc(Cl)c(-c4c[nH]c5ccccc45)n3)C2)cc1` (configuration not stated), which % of control [5] is on record?
A: Its % of control is 85%.
